Test results as given in US8859584B2, “TRPV1 antagonists” (AbbVie Inc., priority 2011, dated 2014).

Key:
human TRPV1 [1] = target: T1, human TRPV1 (Homo sapiens, UniProt Q8NER1); test: Capsaicin Activation Assay (FLIPR intracellular Ca2+, recombinant HEK293 cells); assay type: cell-based; settings: recombinant HEK293 cells expressing hTRPV1; 50 nM capsaicin; read-out: human TRPV1 capsaicin IC50
T1 construct: expressed in transfected cells

human TRPV1 [2] = target: T1, human TRPV1; test: Acid Activation Assay (pH 5.0, FLIPR intracellular Ca2+, recombinant HEK293 cells); assay type: cell-based; settings: percentage of maximal pH 5.0-induced response remaining; HEK293 hTRPV1; max concentration 37.5 μM
In short: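 HEK293 cells stably expressing recombinant hTRPV1 were loaded with calcium dye for 90-120 min at 25° C and pre-treated with compound for 3 min before a pH 5.0 (DPBS/MES) challenge. Peak FLIPR fluorescence over baseline is given as percentage of the maximal pH 5.0-induced response.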

T1 sequence (Q8NER1 whole entry): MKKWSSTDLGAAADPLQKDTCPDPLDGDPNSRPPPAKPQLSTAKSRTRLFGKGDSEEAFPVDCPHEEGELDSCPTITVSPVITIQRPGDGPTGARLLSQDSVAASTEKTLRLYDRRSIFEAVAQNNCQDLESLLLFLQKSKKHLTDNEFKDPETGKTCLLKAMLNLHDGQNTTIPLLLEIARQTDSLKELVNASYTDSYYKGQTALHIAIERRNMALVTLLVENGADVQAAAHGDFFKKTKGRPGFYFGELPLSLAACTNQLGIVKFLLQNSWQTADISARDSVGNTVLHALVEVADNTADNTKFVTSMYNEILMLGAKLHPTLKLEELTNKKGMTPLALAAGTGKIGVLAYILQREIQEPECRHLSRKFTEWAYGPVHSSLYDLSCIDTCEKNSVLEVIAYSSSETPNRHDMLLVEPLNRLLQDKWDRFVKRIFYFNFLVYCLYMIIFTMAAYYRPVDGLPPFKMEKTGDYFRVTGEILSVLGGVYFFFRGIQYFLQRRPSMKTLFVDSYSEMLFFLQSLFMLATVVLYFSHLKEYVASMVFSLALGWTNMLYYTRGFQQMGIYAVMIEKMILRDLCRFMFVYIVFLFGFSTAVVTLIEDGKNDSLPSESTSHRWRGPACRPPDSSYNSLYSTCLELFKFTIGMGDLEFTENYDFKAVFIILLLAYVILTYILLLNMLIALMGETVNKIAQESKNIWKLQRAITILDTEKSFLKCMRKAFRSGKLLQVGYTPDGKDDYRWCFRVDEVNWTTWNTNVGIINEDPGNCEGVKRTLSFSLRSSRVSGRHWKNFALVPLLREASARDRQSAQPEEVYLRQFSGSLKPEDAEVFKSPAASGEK

| Compound | IC50 (human TRPV1 [1]) [nM] | human TRPV1 H+ (max % remain) (human TRPV1 [2]) [%] |
| --- | --- | --- |
| CC1(C)C[C@@H](NC(=O)Nc2cccc3c2C[C@@H](O)C3)c2cccc(C(F)(F)F)c2O1 [Example 34, 1-[(4R)-2,2-dimethyl-8-(trifluoromethyl)-3,4-dihydro-2H-chromen-4-yl]-3-[(2S)-2-hydroxy-2,3-dihydro-1H-inden-4-yl]urea] | 12 | 18 |
| CC(=O)Nc1nc2c(Oc3cc(-c4ccc(C(F)(F)F)cc4)ncn3)cccc2s1 [A, reference compound] | 20 | 10 |
| O=C(Nc1cccc2c1C[C@H](O)C2)N[C@@H]1CC(CF)(CF)Oc2c(F)cc(F)cc21 [Example 1, 1-[(4R)-6,8-difluoro-2,2-bis(fluoromethyl)-3,4-dihydro-2H-chromen-4-yl]-3-[(2R)-2-hydroxy-2,3-dihydro-1H-inden-4-yl]urea] | 300 | 61 |
| CC1(C)C[C@@H](NC(=O)Nc2cccc3c2C[C@@H](O)C3)c2ccc(F)c(F)c2O1 [Example 38, 1-[(4R)-7,8-difluoro-2,2-dimethyl-3,4-dihydro-2H-chromen-4-yl]-3-[(2S)-2-hydroxy-2,3-dihydro-1H-inden-4-yl]urea] | 37 | 43 |
| CCC1(CC)C[C@@H](NC(=O)Nc2cccc3c2C[C@H](O)C3)c2ccc(Cl)cc2O1 [Example 54, 1-[(4R)-7-chloro-2,2-diethyl-3,4-dihydro-2H-chromen-4-yl]-3-[(2R)-2-hydroxy-2,3-dihydro-1H-inden-4-yl]urea] | 76 | 59 |
| CCC1(CC)C[C@@H](NC(=O)Nc2cccc3c2C[C@H](O)C3)c2ccc(C(F)(F)F)cc2O1 [Example 53, 1-[(4R)-2,2-diethyl-7-(trifluoromethyl)-3,4-dihydro-2H-chromen-4-yl]-3-[(2R)-2-hydroxy-2,3-dihydro-1H-inden-4-yl]urea] | 51 | 37 |
| COc1ccc(CC2COc3ccccc3C2NC(=O)Nc2cccc3c2CC(O)C3)cc1OC (stereo not shown) [Example 109, 1-[3-(3,4-dimethoxybenzyl)-3,4-dihydro-2H-chromen-4-yl]-3-(2-hydroxy-2,3-dihydro-1H-inden-4-yl)urea] | 3100 | 89 |
| C[C@@]1(CF)C[C@@H](NC(=O)Nc2cccc3c2C[C@H](O)C3)c2ccc(C(F)(F)F)cc2O1 [Example 44, 1-[(2S,4R)-2-(fluoromethyl)-2-methyl-7-(trifluoromethyl)-3,4-dihydro-2H-chromen-4-yl]-3-[(2R)-2-hydroxy-2,3-dihydro-1H-inden-4-yl]urea] | 42 | 52 |
| CC1(C)C[C@@H](NC(=O)Nc2ccc(F)c3c2C[C@@H](O)C3)c2ccc(C(F)(F)F)cc2O1 [Example 160, 1-[(4R)-2,2-dimethyl-7-(trifluoromethyl)-3,4-dihydro-2H-chromen-4-yl]-3-[(2R)-7-fluoro-2-hydroxy-2,3-dihydro-1H-inden-4-yl]urea] | 130 | 61 |
| O=C(Nc1ccc(F)c2c1C[C@@H](O)C2)N[C@@H]1CC(CF)(CF)Oc2c(F)cc(F)cc21 [Example 162, 1-[(4R)-6,8-difluoro-2,2-bis(fluoromethyl)-3,4-dihydro-2H-chromen-4-yl]-3-[(2R)-7-fluoro-2-hydroxy-2,3-dihydro-1H-inden-4-yl]urea] | 3400 | 50 |
| CC1(C)C[C@@H](NC(=O)Nc2cccc3c2C[C@H](O)C3)c2ccc(C(F)(F)F)nc2O1 [Example 105, 1-[(4R)-2,2-dimethyl-7-(trifluoromethyl)-3,4-dihydro-2H-pyrano[2,3-b]pyridin-4-yl]-3-[(2R)-2-hydroxy-2,3-dihydro-1H-inden-4-yl]urea] | 150 | 39 |
| O=C(Nc1cccc2c1C[C@H](O)C2)N[C@@H]1CCc2cc(OC(F)(F)F)ccc21 [Example 106, 1-[(2R)-2-hydroxy-2,3-dihydro-1H-inden-4-yl]-3-[(1R)-5-(trifluoromethoxy)-2,3-dihydro-1H-inden-1-yl]urea] | 56 | 26 |
| O=C(Nc1cccc2c1C[C@H](O)C2)N[C@H]1COc2ccc(Cl)cc2C1 [Example 89, 1-[(3R)-6-chloro-3,4-dihydro-2H-chromen-3-yl]-3-[(2R)-2-hydroxy-2,3-dihydro-1H-inden-4-yl]urea] | 560 | 91 |
| Cc1cccnc1N1CC=C(C(=O)Nc2ccc(S(=O)(=O)C(F)(F)F)cc2)CC1 [E, reference compound] | 100 | 2 |
| O=C(Nc1cccc2c1C[C@H](O)C2)N[C@@H]1CC2(CCC2)Oc2ccc(F)cc21 [Example 8, 1-[(4R)-6-fluoro-3,4-dihydrospiro[chromene-2,1′-cyclobutan]-4-yl]-3-[(2R)-2-hydroxy-2,3-dihydro-1H-inden-4-yl]urea] | 35 | 50 |
| CC1(C)C[C@@H](NC(=O)Nc2ccc(F)c3c2C[C@H](O)C3)c2ccc(Cl)cc2O1 [Example 149, 1-[(4R)-7-chloro-2,2-dimethyl-3,4-dihydro-2H-chromen-4-yl]-3-[(2S)-7-fluoro-2-hydroxy-2,3-dihydro-1H-inden-4-yl]urea] | 540 | 2 |
| 1-[(4R)-7-fluoro-2,2-dimethyl-3,4-dihydro-2H-chromen-4-yl]-3-[(2R)-7-fluoro-2-hydroxy-2,3-dihydro-1H-inden-4-yl]urea [Example 158] | 600 | 48 |
| C[C@]1(C(F)F)C[C@@H](NC(=O)Nc2cccc3c2C[C@H](O)C3)c2ccc(Cl)cc2O1 [Example 33, 1-[(2R,4R)-7-chloro-2-(difluoromethyl)-2-methyl-3,4-dihydro-2H-chromen-4-yl]-3-[(2R)-2-hydroxy-2,3-dihydro-1H-inden-4-yl]urea] | 27 | 51 |

Second part, the compound after the results:

| IC50 (human TRPV1 [1]) [nM] | human TRPV1 H+ (max % remain) (human TRPV1 [2]) [%] | Compound |
| --- | --- | --- |
| 11 | 14 | CC1(C)C[C@@H](NC(=O)Nc2cccc3c2C[C@@H](O)C3)c2ccc(Cl)c(F)c2O1 [Example 35, 1-[(4R)-7-chloro-8-fluoro-2,2-dimethyl-3,4-dihydro-2H-chromen-4-yl]-3-[(2S)-2-hydroxy-2,3-dihydro-1H-inden-4-yl]urea] |
| 170 | 46 | O=C(Nc1c(F)ccc2c1C[C@@H](O)C2)N[C@@H]1CC(CF)(CF)Oc2cc(C(F)(F)F)ccc21 [Example 95, 1-[(4R)-2,2-bis(fluoromethyl)-7-(trifluoromethyl)-3,4-dihydro-2H-chromen-4-yl]-3-[(2S)-5-fluoro-2-hydroxy-2,3-dihydro-1H-inden-4-yl]urea] |
| 400 | 2 | O=C(Nc1ccc(F)c2c1C[C@H](O)C2)N[C@@H]1CC(CF)(CF)Oc2c1ccc(Cl)c2F [Example 144, 1-[(4R)-7-chloro-8-fluoro-2,2-bis(fluoromethyl)-3,4-dihydro-2H-chromen-4-yl]-3-[(2S)-7-fluoro-2-hydroxy-2,3-dihydro-1H-inden-4-yl]urea] |
| 570 | 75 | O=C(Nc1cccc2c1C[C@H](O)C2)NC1COc2cc(Cl)ccc2C1 (stereo partly drawn) [Example 99, 1-(7-chloro-3,4-dihydro-2H-chromen-3-yl)-3-[(2R)-2-hydroxy-2,3-dihydro-1H-inden-4-yl]urea] |
| 4100 | 94 | COc1ccc(C2COc3ccccc3C2NC(=O)Nc2cccc3c2CC(O)C3)cc1 (stereo not shown) [Example 116, 1-(2-hydroxy-2,3-dihydro-1H-inden-4-yl)-3-[3-(4-methoxyphenyl)-3,4-dihydro-2H-chromen-4-yl]urea] |
| 17 | 4 | O=C(Nc1cccc2c1C[C@@H](O)C2)N[C@@H]1CCOc2cc(OC(F)(F)F)ccc21 [Example 37, 1-[(2S)-2-hydroxy-2,3-dihydro-1H-inden-4-yl]-3-[(4R)-7-(trifluoromethoxy)-3,4-dihydro-2H-chromen-4-yl]urea] |
| 970 | 79 | COCC1(COC)C[C@@H](NC(=O)Nc2cccc3c2C[C@H](O)C3)c2cc(F)ccc2O1 [Example 68, 1-[(4R)-6-fluoro-2,2-bis(methoxymethyl)-3,4-dihydro-2H-chromen-4-yl]-3-[(2R)-2-hydroxy-2,3-dihydro-1H-inden-4-yl]urea] |
| 240 | 72 | CCC1(CC)C[C@@H](NC(=O)Nc2cccc3c2C[C@H](O)C3)c2ccc(Cl)c(Cl)c2O1 [Example 55, 1-[(4R)-7,8-dichloro-2,2-diethyl-3,4-dihydro-2H-chromen-4-yl]-3-[(2R)-2-hydroxy-2,3-dihydro-1H-inden-4-yl]urea] |
| > 38000 | 100 | CC1(C)C[C@H](NC(=O)Nc2cccc3c2C[C@H](O)C3)c2cc(F)ccc2O1 [Example 104, 1-[(4S)-6-fluoro-2,2-dimethyl-3,4-dihydro-2H-chromen-4-yl]-3-[(2R)-2-hydroxy-2,3-dihydro-1H-inden-4-yl]urea] |
| 20 | 69 | CC1(C(F)F)C[C@@H](NC(=O)Nc2cccc3c2C[C@H](O)C3)c2cc(Cl)ccc2O1 (stereo partly drawn) [Example 61, 1-[(4R)-6-chloro-2-(difluoromethyl)-2-methyl-3,4-dihydro-2H-chromen-4-yl]-3-[(2R)-2-hydroxy-2,3-dihydro-1H-inden-4-yl]urea] |
| 290 | 58 | O=C(NCC1COc2ccc(F)cc2C1)Nc1cccc2c1C[C@H](O)C2 (stereo partly drawn) [Example 28, 1-[(6-fluoro-3,4-dihydro-2H-chromen-3-yl)methyl]-3-[(2R)-2-hydroxy-2,3-dihydro-1H-inden-4-yl]urea] |
